Experimental data as given in patent publication US12673946B2, “Pyrimidin-4(3H)-one derivatives as TRPV4 antagonists” (RaQualia Pharma Inc., priority 2020, dated 2026).

Molecular target: T1, human TRPV4 (Homo sapiens, UniProt Q9HBA0)
T1 construct: host or cells: tetracycline-inducible Flp-In T-REx 293 cells
Assay: Hypotonicity-induced Ca2+ influx (Fluo-4, FDSS)
Format: cell-based
Procedure, shortened: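 Flp-In T-REx 293 cells with tetracycline-induced human TRPV4, loaded with Fluo-4 for 60 min at 25 °C. Compound added 5 min before hypotonic mannitol/CaCl2 solution. Ca2+ signal recorded for 4.5 min on FDSS.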

[1] = Flp-In T-REx 293 cells expressing human TRPV4, examples listed under heading 'Human IC50<50 nM'
[2] = Flp-In T-REx 293 cells stably expressing human TRPV4, compounds listed by potency bin (<10 nM Tables 96-1/96-2, <3 nM Table 97)

T1 sequence (Q9HBA0 whole entry): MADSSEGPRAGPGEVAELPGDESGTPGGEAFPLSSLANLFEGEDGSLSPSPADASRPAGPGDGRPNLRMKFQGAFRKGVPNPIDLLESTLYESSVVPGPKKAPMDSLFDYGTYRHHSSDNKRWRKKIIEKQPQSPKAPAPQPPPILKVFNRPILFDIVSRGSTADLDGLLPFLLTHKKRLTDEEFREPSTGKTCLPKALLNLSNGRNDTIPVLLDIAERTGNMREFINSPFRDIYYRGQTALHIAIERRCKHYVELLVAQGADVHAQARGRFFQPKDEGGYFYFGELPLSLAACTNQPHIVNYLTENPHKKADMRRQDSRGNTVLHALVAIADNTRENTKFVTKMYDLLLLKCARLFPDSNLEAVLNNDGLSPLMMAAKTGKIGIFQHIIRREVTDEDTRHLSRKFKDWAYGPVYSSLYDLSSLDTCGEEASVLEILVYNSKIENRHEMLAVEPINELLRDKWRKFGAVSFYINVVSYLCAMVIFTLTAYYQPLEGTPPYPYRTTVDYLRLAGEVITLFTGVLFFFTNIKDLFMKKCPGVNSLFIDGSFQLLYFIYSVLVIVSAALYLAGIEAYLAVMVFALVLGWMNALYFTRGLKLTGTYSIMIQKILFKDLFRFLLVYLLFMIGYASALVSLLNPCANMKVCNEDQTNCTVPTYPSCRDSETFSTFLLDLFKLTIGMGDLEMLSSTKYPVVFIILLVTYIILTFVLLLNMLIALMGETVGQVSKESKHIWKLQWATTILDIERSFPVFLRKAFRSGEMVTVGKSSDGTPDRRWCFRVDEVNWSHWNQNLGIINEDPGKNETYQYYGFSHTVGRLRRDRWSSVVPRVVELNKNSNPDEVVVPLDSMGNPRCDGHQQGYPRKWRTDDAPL

SMILES | IC50 [1] | IC50 [2]
N#Cc1ccc(-c2cccc(CC(=O)N3CCc4nc(C5(c6cccc(Cl)c6)CC5)[nH]c(=O)c4C3)c2)cc1 [14-115] | < 50 nM | –
O=C([C@H](O)c1cccc(Cl)c1)N1CCCc2nc(C3(c4ccnc(Oc5ccccc5)c4)CC3)[nH]c(=O)c2C1 [19-9] | < 50 nM | –
O=C(Cc1cccc(-c2cccc(Cl)c2)c1)N1CCCc2nc(C3(c4cccc(-c5csc6ccccc56)c4)CC3)[nH]c(=O)c2C1 [17-123] | < 50 nM | < 10 nM
O=C([C@H](O)c1cccc(Cl)c1)N1CCc2nc(C3(c4cccc(C5CCCCC5)c4)CC3)[nH]c(=O)c2C1 [14-1] | < 50 nM | < 3 nM
O=C([C@H](O)c1cccc(C(F)(F)F)c1)N1CCc2nc(C3(c4cccc(Cl)c4)CC3)[nH]c(=O)c2C1 [3-72] | < 50 nM | –
O=C([C@H](O)c1cccc(C(F)(F)F)c1)N1CCCc2nc(C3(c4cnc(-c5ccccc5)o4)CC3)[nH]c(=O)c2C1 [18-31] | < 50 nM | –
O=C([C@H](O)c1cccc(Cl)c1)N1CCc2nc(C3(c4cncc(-c5ccccc5)c4)CC3)[nH]c(=O)c2C1 [16-1] | < 50 nM | < 3 nM
O=C([C@H](O)c1cccc(C(F)(F)F)c1)N1CCc2nc(C3(c4cc(C5CCOCC5)cs4)CC3)[nH]c(=O)c2C1 [26-2] | < 50 nM | –
O=C(C(O)c1ccccc1Oc1ccccc1)N1CCCc2nc(C3(c4cccc(Cl)c4)CC3)[nH]c(=O)c2C1 (stereo not shown) [17-22] | < 50 nM | < 10 nM
O=C([C@H](O)c1cccc(C(F)(F)F)c1)N1CCc2nc(C3(c4cccs4)CC3)[nH]c(=O)c2C1 [15-18] | < 50 nM | –
CC(C)c1csc(C2(c3nc4c(c(=O)[nH]3)CN(C(=O)[C@H](O)c3cccc(C(F)(F)F)c3)CC4)CC2)c1 [15-2] | < 50 nM | < 3 nM
O=C([C@H](O)c1cccc(Cl)c1)N1CCc2nc(C3(c4cc(C5CCCCC5)cs4)CC3)[nH]c(=O)c2C1 [15-7] | < 50 nM | < 10 nM
O=C(C(O)c1cccc(Cl)c1F)N1CCc2nc(C3(c4ccccc4)CC3)[nH]c(=O)c2C1 (single isomer, unassigned) [3-69] | < 50 nM | –
O=C([C@H](O)c1cccc(C(F)(F)F)c1)N1CCc2nc(C3(c4cc(-c5cccnc5)cs4)CC3)[nH]c(=O)c2C1 [36-2] | < 50 nM | –
O=C(C(O)c1cccc(-c2cccc(C(F)(F)F)c2)c1)N1CCCc2nc(C3(c4cccc(F)c4)CC3)[nH]c(=O)c2C1 (stereo not shown) [17-14] | < 50 nM | < 10 nM
O=C([C@H](O)c1cccc(C(F)(F)F)c1)N1CCCc2nc(C3(c4cccc(F)c4)CC3)[nH]c(=O)c2C1 [17-36] | < 50 nM | < 10 nM
CC(C)c1cccc(C2(c3nc4c(c(=O)[nH]3)CN(C(=O)C(O)c3cccc(C(C)(C)C)c3)CCC4)CC2)c1 (stereo not shown) [17-8] | < 50 nM | < 3 nM
O=C([C@H](O)c1cccc(Cl)c1)N1CCCc2nc(C3(c4cc(C5CCOCC5)cs4)CC3)[nH]c(=O)c2C1 [18-25] | < 50 nM | < 10 nM

The next lines start with the values.

IC50 [1] | IC50 [2] | SMILES
< 50 nM | < 10 nM | CC(C)N(Cc1ccccc1)C(=O)c1csc(C2(c3nc4c(c(=O)[nH]3)CN(C(=O)[C@H](O)c3cccc(C(F)(F)F)c3)CCC4)CC2)c1 [59-1]
< 50 nM | < 10 nM | O=C([C@H](O)c1cccc(-c2cc(Cl)ccc2Cl)c1)N1CCc2nc(C3(c4ccccc4)CC3)[nH]c(=O)c2C1 [44-108]
< 50 nM | < 10 nM | O=C([C@H](O)c1cccc(-c2cc(Cl)cc(OC(F)(F)F)c2)c1)N1CCCc2nc(C3(c4cccc(Cl)c4)CC3)[nH]c(=O)c2C1 [50-16]
< 50 nM | < 10 nM | CC(C)(C)c1cccc(-c2cccc([C@@H](O)C(=O)N3CCCc4nc(C5(c6cc(-c7ccccc7)cs6)CC5)[nH]c(=O)c4C3)c2)c1 [54-12]
< 50 nM | – | O=C(C(O)c1cccc(-c2cccc(F)c2)c1)N1CCc2nc(C3(c4ccccc4)CC3)[nH]c(=O)c2C1 (stereo not shown) [44-47]
< 50 nM | < 3 nM | O=C([C@H](O)c1cccc(-c2ccc(Cl)cc2)c1)N1CCCc2nc(C3(c4ccccc4)CC3)[nH]c(=O)c2C1 [49-18]
< 50 nM | – | O=C(C(O)c1cccc(-c2cc(F)ccc2F)c1)N1CCc2nc(C3(c4ccccc4)CC3)[nH]c(=O)c2C1 (stereo not shown) [44-48]
< 50 nM | < 10 nM | O=C([C@H](O)c1cccc(-c2cccc(F)c2)c1)N1CCCc2nc(C3(c4cccc(C5CCCCC5)c4)CC3)[nH]c(=O)c2C1 [52-1]
< 50 nM | – | O=C(C(O)c1cncc(-c2cccc(F)c2)c1)N1CCc2nc(C3(c4ccccc4)CC3)[nH]c(=O)c2C1 (stereo not shown) [48-11]
< 50 nM | < 3 nM | O=C([C@H](O)c1cccc(C(F)(F)F)c1)N1CCCc2nc(C3(c4cccc(-c5ccc(OCc6ccccn6)cc5)c4)CC3)[nH]c(=O)c2C1 [42-43]
< 50 nM | < 10 nM | O=C([C@H](O)c1cccc(-c2csc3ccccc23)c1)N1CCCc2nc(C3(c4ccccc4)CC3)[nH]c(=O)c2C1 [49-24]
< 50 nM | < 3 nM | O=C([C@H](O)c1cccc(-c2cccc(C3CC3)c2)c1)N1CCCc2nc(C3(c4cccs4)CC3)[nH]c(=O)c2C1 [53-6]
< 50 nM | < 10 nM | O=C([C@H](O)c1cccc(-c2cccc(OC(F)(F)F)c2)c1)N1CCCc2nc(C3(c4cccc(-c5csc6ccccc56)c4)CC3)[nH]c(=O)c2C1 [52-10]
< 50 nM | < 3 nM | CC(C)Oc1cccc(-c2cccc([C@@H](O)C(=O)N3CCc4nc(C5(c6ccccc6)CC5)[nH]c(=O)c4C3)c2)c1 [44-104]
< 50 nM | – | O=C([C@H](O)c1cccc(C(F)(F)F)c1)N1CCCc2nc(C3(c4cccc(-c5ccc(CN6CCCC6)cc5)c4)CC3)[nH]c(=O)c2C1 [42-52]
< 50 nM | < 10 nM | O=C([C@H](O)c1cccc(C(F)(F)F)c1)N1CCCc2nc(C3(c4cccc(C5=CCN(CC(F)(F)F)CC5)c4)CC3)[nH]c(=O)c2C1 [42-81]
< 50 nM | – | Cc1ccc(-c2cccc([C@@H](O)C(=O)N3CCc4nc(C5(c6ccccc6)CC5)[nH]c(=O)c4C3)c2)cc1C [44-114]
< 50 nM | – | O=C(C(O)c1cccc(-c2ccc(F)cc2F)c1)N1CCc2nc(C3(c4ccccc4)CC3)[nH]c(=O)c2C1 (stereo not shown) [44-52]
< 50 nM | < 3 nM | COc1ccc(C(=O)N2CC=C(c3cccc(C4(c5nc6c(c(=O)[nH]5)CN(C(=O)[C@H](O)c5cccc(C(F)(F)F)c5)CCC6)CC4)c3)CC2)cc1OC1CCCC1 [42-82]
< 50 nM | < 10 nM | O=C(c1csc(C2(c3nc4c(c(=O)[nH]3)CN(C(=O)[C@H](O)c3cccc(C(F)(F)F)c3)CCC4)CC2)c1)N(Cc1ccccc1)Cc1ccccc1 [59-12]
< 50 nM | < 10 nM | O=C([C@H](O)c1cccc(-c2cc(Cl)cc(OC(F)(F)F)c2)c1)N1CCCc2nc(C3(c4ccccc4)CC3)[nH]c(=O)c2C1 [49-34]
< 50 nM | < 10 nM | O=C(Cc1cccc(-c2cccc(C(F)(F)F)c2)c1)N1CCCc2nc(C3(c4ccccc4)CC3)[nH]c(=O)c2C1 [57-3]
< 50 nM | < 10 nM | O=C(Cc1cccc(-c2cc(F)cc(Cl)c2)c1)N1CCCc2nc(C3(c4cccc(Cl)c4)CC3)[nH]c(=O)c2C1 [57-9]
< 50 nM | < 3 nM | O=C([C@H](O)c1cccc(-c2cccc(F)c2)c1)N1CCCc2nc(C3(c4cccc(Cl)c4)CC3)[nH]c(=O)c2C1 [50-6]
